From US20110144177A1, “Carbamoyl Esters That Inhibit Cholinesterase And Release Pharmacologically Active Agents” (priority 2003, published 2011)

Columns and labels:
[1] = test system: total cholinesterase activity in the brain; assay: Total cholinesterase activity in brain homogenate after i.p. injection; format: in vivo, Male Wistar rats; settings: for tolerability of the dose: i.p. dose giving a cholinergic behavioral effect with minimal side effects
Protocol: Animals were decapitated 3 hours after injection and the brains rapidly removed. The brain tissue was diced into small pieces, placed on ice and immediately homogenized with a Polytron PT1200 (Kinematic AG) in 10 ml ice cold Tris with 0.1% Triton-X and protease inhibitors. The protease inhibitors in the extraction buffer were Antipain (10 μM), Aprotinin (5 TIU/mg protein), Bestatin ([…]), Leupeptin (10 μM) and Pepstatin (1 μM). The final dilution of the homogenate in the final assay mixture was 120-fold.
Total cholinesterase activity was determined by a modification of the colorimetric method of Ellmann, et al. (Biochem. Pharmacol., 7:88-95 (1961)), as described above. Hydrolysis of acetylthiocholine was monitored indirectly by measurement of the formation of the conjugate between thiocholine and DTNB. Optical density at 405 nm was recorded during five (5) minutes employing a microplate spectrophotometer (Polarstar, BMG Labtech), and plotted against time. The initial rates were calculated from the slope of the linear portion of the graph.
Cholinesterase activity was normalized for protein content of the homogenate. Relative cholinesterase activity was calculated as the ratio of normalized cholinesterase activity in a rat treated with a control compound or a carbamoyl ester over normalized cholinesterase activity in saline treated rats.

[2] = test system: scopolamine-induced amnesia; assay: Scopolamine induced amnesia in multiple trial passive (inhibitory) avoidance assay; format: in vivo, rat; settings: for Performance relative to scopolamine / Performance relative to saline: at the most effective dose, latency to enter dark chamber; for Performance relative to scopolamine: relative to impaired (scopolamine) group; for Performance relative to saline: relative to unimpaired (saline) control group; for most effective dose (the dose that increases the latency the most): i.p. immediately after training, scopolamine 0.75 mg/kg, retention 24 hours later
Excerpt: Inhibitory avoidance is used as a cognitive performance screen because the discrete nature of the task allows for precise pharmacological manipulation and for the ability to selectively study acquisition, consolidation, or recall or learned information.
The inhibitory avoidance apparatus used in these experiments consisted of a light chamber and a dark chamber, which were joined by means of a sliding guillotine door. Training involved placing a rat inside the light chamber with its head facing away from the door. Ten seconds later, the sliding door was opened, and the latency to enter the dark chamber was recorded (100 second maximum). When the rat entered the dark chamber, it received a continuous footshock (0.4 mA) through the metal grid floor until it returned to the light chamber. This sequence of events continued until the rat remained in the light chamber for a period of 100 consecutive seconds or until a maximum of 5 footshocks had been received.
Retention testing, or the ability of the rat to remember the previous events in the inhibitory avoidance apparatus, was conducted 24 hours after the initial testing. The rat was placed into the light chamber with its head facing away from the door. Ten seconds later, the door was opened, allowing the rat access to the dark chamber. No footshock was administered during retention testing. Latency to enter the dark chamber was recorded (900 seconds maximum) and used as a measure of memory.
To assess the effects of the carbamoyl esters on scopolamine-induced amnesia, rats were injected with saline or scopolamine hydrochloride (0.75 mg/kg) 30 minutes prior to training on the Inhibitory Avoidance task. Immediately following the training trial, rats were injected with saline or the carbamoyl ester.
Retention for the task in scopolamine or saline treated rats, was assessed as described above, 24 hours later. No compound (drug) was administered to the rat prior to the retention test and no shock was given during retention testing. For retention testing, the rat was placed into the light chamber. Fifteen seconds later, the door was automatically opened and latency to enter the dark compartment was measured. The latency to enter the dark chamber is the primary measure of memory on this task. Carbamoyl esters were evaluated in this protocol.

[3] = target: human recombinant acetylcholinesterase (Homo sapiens, UniProt P22303); format: biochemical
Chain of human recombinant acetylcholinesterase (P22303 32-614): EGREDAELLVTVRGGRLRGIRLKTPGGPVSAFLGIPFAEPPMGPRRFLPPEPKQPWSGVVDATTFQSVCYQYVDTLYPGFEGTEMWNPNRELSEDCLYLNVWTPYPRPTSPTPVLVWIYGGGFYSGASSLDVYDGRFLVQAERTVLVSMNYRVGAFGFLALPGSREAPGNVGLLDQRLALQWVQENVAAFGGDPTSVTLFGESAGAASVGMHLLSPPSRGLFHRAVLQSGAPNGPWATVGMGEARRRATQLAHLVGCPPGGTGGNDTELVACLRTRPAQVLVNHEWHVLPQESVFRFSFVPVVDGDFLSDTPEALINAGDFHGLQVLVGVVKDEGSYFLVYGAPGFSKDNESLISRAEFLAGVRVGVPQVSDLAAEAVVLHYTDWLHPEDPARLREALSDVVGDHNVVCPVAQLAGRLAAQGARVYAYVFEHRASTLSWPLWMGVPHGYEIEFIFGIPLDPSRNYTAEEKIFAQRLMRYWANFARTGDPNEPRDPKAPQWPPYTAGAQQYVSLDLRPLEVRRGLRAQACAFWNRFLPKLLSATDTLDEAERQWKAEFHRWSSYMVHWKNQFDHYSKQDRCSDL

| SMILES | ChE inhibition ([1]; 8 mg/kg i.p., brain 3 hours after injection) | tolerability of the dose [1] | Performance relative to scopolamine [2] | Performance relative to saline [2] | most effective dose (the dose that increases the latency the most) [2] | fold increase in enzymatic activity compared to rivastigmine [3] | ChE inhibition ([1]; 2 mg/kg i.p., brain 3 hours after injection) | Relative ChE Activity ([1]; 2 mg/kg i.p., brain 3 hours after injection, relative to saline treated rats) |
| --- | --- | --- | --- | --- | --- | --- | --- | --- |
| C[C@H](Cc1ccccc1)NC(=O)Oc1cccc([C@H](C)N(C)C)c1 [Compound 9] | 41% | well-tolerated | 306% | 83% | 0.1 mg/kg |  |  |  |
| C[C@H](Cc1ccccc1)NC(=O)Oc1ccc2c(c1)[C@]1(C)CCN(C)[C@@H]1N2C [Compound 14] |  |  | 186% | 51% | 0.02 mg/kg | 10 fold |  |  |
| CCN(C)C(=O)Oc1cccc([C@H](C)N(C)C)c1 [Rivastigmine, reference compound] |  | well-tolerated |  |  | 0.25 mg/kg |  |  |  |
| C[C@H](Cc1ccccc1)N(C)C(=O)Oc1cccc([C@H](C)N(C)C)c1 [Compound 7] |  | well-tolerated | 298% | 64% | 0.25 mg/kg |  | 38% | 62% |
| CC(Cc1ccccc1)NC(=O)Oc1cccc([C@H](C)N(C)C)c1 (some centres unmarked) [Compound 3] |  |  | 294% | 100% | 1.4 mg/kg |  |  |  |
